Active and inactive are the calls of the source. Where a SMILES comes first, the peptide text is derived from it. Bridges are numbered along the chain shown (N, C = ends).
How the values were obtained:
[1] = molecular target: T1, Toll-like receptor 4 (Homo sapiens, UniProt O00206); assay: Antagonist activity at TLR4 in human THP1 cells assessed as reduction in LPS-induced NFkappaB p65 phosphorylation at 50 uM after 15 to 30 mins by Western blot analysis; type: cell-based
[2] = system: Rattus norvegicus; assay: Antiarthritic activity in Lewis rat model of complete Freund's adjuvant-induced arthritis assessed as reduction in TNFalpha expression in synovial tissues at 1 nmol/g administered intra-articularly into knee joint measured at 1 week by TNFalpha staining based immunohistochemical analysis; type: functional, organism-based
[3] = molecular target: T2, Toll-like receptor 4 (Mus musculus) (UniProt Q9QUK6); assay: Antagonist activity at TLR4 in mouse RAW264.7 cells assessed as reduction in LPS-induced cytosolic NO level at 50 uM by DAF-FM staining based FACS analysis; type: cell-based
T2 sequence (whole entry): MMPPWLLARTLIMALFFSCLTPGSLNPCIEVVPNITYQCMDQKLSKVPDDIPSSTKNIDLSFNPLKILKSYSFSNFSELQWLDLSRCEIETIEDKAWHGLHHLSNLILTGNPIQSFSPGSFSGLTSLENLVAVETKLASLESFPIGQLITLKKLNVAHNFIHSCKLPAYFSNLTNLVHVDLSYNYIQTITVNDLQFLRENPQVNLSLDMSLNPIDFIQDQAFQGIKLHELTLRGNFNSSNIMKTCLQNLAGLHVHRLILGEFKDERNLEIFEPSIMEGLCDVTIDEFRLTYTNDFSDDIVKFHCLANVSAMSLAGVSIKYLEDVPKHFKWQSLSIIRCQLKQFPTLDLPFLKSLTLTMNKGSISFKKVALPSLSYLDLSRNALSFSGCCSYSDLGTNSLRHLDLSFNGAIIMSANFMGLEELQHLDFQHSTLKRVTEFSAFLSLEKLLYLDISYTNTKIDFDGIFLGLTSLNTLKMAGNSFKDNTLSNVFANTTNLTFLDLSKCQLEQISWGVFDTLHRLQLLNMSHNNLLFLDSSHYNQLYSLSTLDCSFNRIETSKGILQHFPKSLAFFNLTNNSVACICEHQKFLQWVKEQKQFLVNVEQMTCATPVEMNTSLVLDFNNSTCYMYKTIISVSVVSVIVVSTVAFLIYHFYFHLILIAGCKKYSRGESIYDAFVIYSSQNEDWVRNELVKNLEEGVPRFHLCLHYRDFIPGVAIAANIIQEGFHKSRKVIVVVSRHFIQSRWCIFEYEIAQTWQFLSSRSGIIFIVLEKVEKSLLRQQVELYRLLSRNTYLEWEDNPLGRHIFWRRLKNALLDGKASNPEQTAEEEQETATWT

[4] = system: Rattus norvegicus; assay: Antiarthritic activity in Lewis rat model of complete Freund's adjuvant-induced arthritis assessed as reduction in ankle diameter at 1 nmol/g administered intra-articularly into knee joint for 6 weeks and measured every week during compound dosing by vernier caliper analysis; type: functional, organism-based
[5] = system: Rattus norvegicus; assay: Antiarthritic activity in Lewis rat model of complete Freund's adjuvant-induced arthritis assessed as appearance of rounded mature chondrocytes surrounded by GAG deposition at 1 nmol/g administered intra-articularly into knee joint and measured on third week by Safranin-O staining based histopathological analysis; type: functional, organism-based
[6] = system: RAW264.7; assay: Cytotoxicity against mouse RAW264.7 cells assessed as reduction in cell viability at 5 to 50 uM after 24 hrs by MTT assay; type: cell-based; settings: raw264.7, 24 h
[7] = system: Rattus norvegicus; assay: Antiarthritic activity in Lewis rat model of complete Freund's adjuvant-induced arthritis assessed as reduction in inflammation synovial tissues at 1 nmol/g administered intra-articularly into knee joint after 1 week by Safranin-O staining based histopathological analysis; type: functional, organism-based
[8] = molecular target: T1, Toll-like receptor 4; assay: Antagonist activity at TLR4 in human THP1 cells assessed as reduction in LPS-induced IRF3 phosphorylation at 50 uM after 120 to 240 mins by Western blot analysis; type: cell-based
[9] = molecular target: T2, Toll-like receptor 4 (Mus musculus); assay: Antagonist activity at TLR4 in mouse RAW264.7 cells assessed as reduction in LPS-induced p38 phosphorylation at 80 uM after 15 to 30 mins by Western blot analysis; type: cell-based
[10] = molecular target: T2, Toll-like receptor 4 (Mus musculus); assay: Antagonist activity at TLR4 in mouse RAW264.7 cells assessed as reduction in LPS-induced ERK phosphorylation at 80 uM after 15 to 30 mins by Western blot analysis; type: cell-based
[11] = system: RAW264.7; assay: Antagonist activity at TLR7/8 in mouse RAW264.7 cells assessed as reduction in R848-induced TNFalpha secretion at 20 to 80 uM after 24 hrs by ELISA; type: cell-based
[12] = molecular target: T2, Toll-like receptor 4 (Mus musculus); assay: Antagonist activity at TLR4 in mouse BMDM cells assessed as reduction in LPS-induced IFNbeta secretion at 20 to 80 uM after 24 hrs by ELISA; type: cell-based
[13] = molecular target: T2, Toll-like receptor 4 (Mus musculus); assay: Antagonist activity at TLR4 in mouse RAW264.7 cells assessed as reduction in LPS-induced cytosolic NO level at 80 uM by DAF-FM staining based FACS analysis; type: cell-based
[14] = molecular target: Toll-like receptor 1/2 (Mus musculus) (UniProt Q9QUN7+Q9EPQ1); assay: Antagonist activity at TLR2/1 in mouse RAW264.7 cells assessed as reduction in PAM3CSK4-induced TNFalpha secretion at 20 to 80 uM after 24 hrs by ELISA; type: cell-based
[15] = molecular target: Toll-like receptor 1/2 (Homo sapiens) (UniProt O60603+Q15399); assay: Antagonist activity at TLR2/1 in human PBMC cells assessed as reduction in PAM3CSK4-induced IL6 secretion at 20 to 80 uM after 24 hrs by ELISA; type: cell-based
[16] = molecular target: T2, Toll-like receptor 4 (Mus musculus); assay: Antagonist activity at TLR4 in mouse BMDM cells assessed as reduction in LPS-induced TNFalpha secretion at 20 to 80 uM after 24 hrs by ELISA; type: cell-based
[17] = molecular target: T2, Toll-like receptor 4 (Mus musculus); assay: Antagonist activity at TLR4 in mouse RAW264.7 cells assessed as reduction in LPS-induced COX2 expression at 80 uM by Western blot analysis; type: cell-based
[18] = molecular target: T1, Toll-like receptor 4; assay: Antagonist activity at TLR4 in human PBMC cells assessed as reduction in LPS-induced p38 phosphorylation at 80 uM after 15 to 30 mins by Western blot analysis; type: cell-based
[19] = molecular target: T1, Toll-like receptor 4; assay: Antagonist activity at TLR4 in human PBMC cells assessed as reduction in LPS-induced IkappaBalpha degradation at 80 uM after 15 to 30 mins by Western blot analysis; type: cell-based
[20] = molecular target: T2, Toll-like receptor 4 (Mus musculus); assay: Antagonist activity at TLR4 in mouse BMDM cells assessed as reduction in LPS-induced IL6 secretion at 20 to 80 uM after 24 hrs by ELISA; type: cell-based
[21] = molecular target: T1, Toll-like receptor 4; assay: Antagonist activity at TLR4 in human PBMC cells assessed as reduction in LPS-induced JNK phosphorylation at 80 uM after 15 to 30 mins by Western blot analysis; type: cell-based
[22] = molecular target: T2, Toll-like receptor 4 (Mus musculus); assay: Antagonist activity at TLR4 in mouse RAW264.7 cells assessed as reduction in LPS-induced NFkappaB p65 phosphorylation at 80 uM preincubated for 1 hr followed by LPS stimulation and measured after 30 mins by Alexafluor-488/Hoechst 33258 staining based immunofluorescence confocal microscopic method; type: cell-based
[23] = molecular target: T2, Toll-like receptor 4 (Mus musculus); assay: Antagonist activity at TLR4 in mouse RAW264.7 cells assessed as reduction in LPS-induced IRF3 phosphorylation at 80 uM after 120 to 240 mins by Western blot analysis; type: cell-based

Measured: Activity

T1 sequence (O00206 whole entry): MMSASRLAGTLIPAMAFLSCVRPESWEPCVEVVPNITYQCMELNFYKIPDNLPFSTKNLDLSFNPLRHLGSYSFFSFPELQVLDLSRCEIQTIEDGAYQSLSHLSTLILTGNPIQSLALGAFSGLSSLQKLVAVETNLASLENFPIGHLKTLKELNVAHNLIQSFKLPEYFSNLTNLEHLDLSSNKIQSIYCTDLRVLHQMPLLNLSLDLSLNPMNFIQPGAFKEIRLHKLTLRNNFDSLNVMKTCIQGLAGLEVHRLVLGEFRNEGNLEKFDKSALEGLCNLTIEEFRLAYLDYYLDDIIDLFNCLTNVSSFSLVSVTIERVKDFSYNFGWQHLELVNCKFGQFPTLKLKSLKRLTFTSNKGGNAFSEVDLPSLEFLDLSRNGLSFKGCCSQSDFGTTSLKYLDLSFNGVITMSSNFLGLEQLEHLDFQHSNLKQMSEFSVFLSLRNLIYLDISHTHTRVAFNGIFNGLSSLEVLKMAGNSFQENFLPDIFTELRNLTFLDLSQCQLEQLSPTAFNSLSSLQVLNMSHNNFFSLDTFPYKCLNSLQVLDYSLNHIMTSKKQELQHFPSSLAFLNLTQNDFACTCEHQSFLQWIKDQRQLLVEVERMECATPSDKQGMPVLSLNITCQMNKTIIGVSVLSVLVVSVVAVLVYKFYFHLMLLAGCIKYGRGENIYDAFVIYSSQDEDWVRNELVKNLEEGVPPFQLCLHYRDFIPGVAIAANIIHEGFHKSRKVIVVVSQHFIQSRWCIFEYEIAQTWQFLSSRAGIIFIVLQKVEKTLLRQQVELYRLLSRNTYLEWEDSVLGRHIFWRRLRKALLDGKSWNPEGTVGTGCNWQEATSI

CC[C@H](C)[C@@H]1NC(=O)[C@H](Cc2c[nH]c3ccccc23)NC(=O)[C@H](Cc2c[nH]c3ccccc23)NC(=O)[C@@H](NC(=O)[C@H](CO)NC(=O)[C@H](Cc2ccccc2)NC(=O)[C@@H](NC(=O)CNC(=O)[C@@H](N)CC(C)C)C(C)C)CC(=O)NCCCC[C@@H](C(=O)N[C@@H](CC(C)C)C(=O)N[C@H](C(=O)O)C(C)C)NC1=O (H-LGVFSDWWIKLV-OH; lactam 6-10)
active: [1] | [2] | [3] | [4] | [5] | [7] | [8]
Non-Toxic: [6]

H-LGVFSSWWIKLV-OH
inactive: [11] | [14] | [15]
active: [9] | [10] | [12] | [13] | [16] | [17] | [18] | [19] | [20] | [21] | [22] | [23]

— ChEMBL document CHEMBL4359843, “Linear and Rationally Designed Stapled Peptides Abrogate TLR4 Pathway and Relieve Inflammatory Symptoms in Rheumatoid Arthritis Rat Model” (J Med Chem, 2019)
